The record followed here is patent US4124577A, “Nonapeptides and methods for their production” (Warner-Lambert, priority 1977, dated 1978).

The subject of the test is LRF (luteinizing hormone releasing factor) induced luteinizing hormone (LH) release. Description: In vitro LRF antagonist test in rat anterior pituitary cell cultures. Type of test: cell-based. The source says:
Nonapeptides of this invention were screened for LRF antagonist activity in vitro using rat anterior pituitary cell cultures as described by Vale et. al. [Endocrinology, 91, 562 (1972)]. The inhibition of LRF (luteinizing hormone releasing factor) induced luteinizing hormone (LH) release into the culture medium is the endpoint in this in vitro bioassay.

On to “LRF: luteinizing hormone releasing factor, formed in the hypothalamus, stimulates the secretion of luteinizing hormone from the anterior pituitary (QHWSYGLRPG; Gonadoliberin-1; UniProt P01148 24-33, looked up) [reference compound]”, for which the “LH released into culture medium” value (LRF alone, molar conc. 5×10^-10 (saline control 16.22)) is 80.93 ng/mL.
“N^α -t-butoxycarbonyl-N^im -benzyl-L-histidyl-L-tryptophyl-O-benzyl-L-seryl-O-benzyl-L-tyrosyl-D-phenylalanyl-L-leucyl-N^G -[(4-methylphenyl)sulfonyl]-L-arginyl-L-prolyl-glycinamide”: the “LH released into culture medium” value (compound molar conc. 1×10^-7, LH released into culture medium, LRF control 5×10^-10) came to 24.91 ng/mL and the “LH released into culture medium” value (compound molar conc. 1×10^-8, LH released into culture medium, LRF control 5×10^-10) was 52.47 ng/mL. Moreover, the “% LH Release Inhibition” value by setting is: (compound molar conc. 1×10^-7, LRF control 5×10^-10) 87%; (compound molar conc. 1×10^-8, LRF control 5×10^-10) 44%.
